≈ marks a conversion by molar mass, not a printed value. Counter-ions that a name gives are not always drawn.
Legend:
Assay type in all cases: cell-based
[1] = tested on: Streptococcus mutans; assay: Bacterial Kill Rate Test
Protocol: Compounds of the dental compositions of the invention were evaluated for extent of bacterial kill in culture. Overnight cultures of Streptococcus mutans in brain heart infusion broth (10^6 CFU/mL) was mixed with a 0.1 weight percent, 0.5 weight percent, or 1.0 weight percent aqueous solution of each compound of the dental composition. After a period of 2, 5, or 10 minutes, 1.0 mL of the mixture was transferred via pipette into a first tube containing 9.0 mL of Letheen broth to provide a 10^−1 dilution. The contents of the tube were mixed using a vortex mixer. A 1.0 mL aliquot of this sample was transferred via pipette into a second tube containing 9.0 mL of Letheen broth to provide a 10^−2 dilution. A 0.1 mL aliquot of each dilution was plated and spread in duplicate on sheep blood agar in Petri dishes, using a “hockey stick” applicator, to provide 10^−2 and 10^−3 dilutions, respectively, on each plate. The plates were incubated at 37° C. for a period of 48 to 72 hours, and then the colony forming units were counted. The CFU counts were compared and the log reduction in the counts were calculated. In Table 3, the bacteria count reduction (log reduction) is the difference between the log of the initial bacteria count and the log of the bacteria count after 2, 5, and 10 minutes.

[2] = tested on: Streptococcus mutans culture (ATCC 25175); assay: Biofilm Inhibition Test: concentration of compound to inhibit biofilm formation at varied sucrose; details: tested at 50 or 150 millimolar
Protocol: Compounds of the dental compositions of the invention, and comparative compounds, were evaluated for biofilm inhibition activity. Composite dental restorative (available under the trade designation “FILTEK SUPREME” from 3M ESPE Dental Products, St. Paul, Minn.) was placed in a 15 millimeter by 1 millimeter stainless steel die. The open ends of the die were then covered with polyester film and the die was subjected to a pressure of 68.95 MPa using a hydraulic press. While the die containing the composite restorative was under compression, the composite was irradiated for two minutes using a Model ACE light source (available from SCHOTT North America, Inc., Auburn, N.Y.). The discs of cured composite restorative were then further cured using a Model UniXS light box (available from Heraeus Kulzer, Inc., Armonk, N.Y.) for 1.5 minutes.
(§1) The cured discs of composite restorative were then immersed in ten milliliters of Streptococcus mutans culture (ATCC 25175; 10^6 CFU/mL) prepared in brain heart infusion broth that contained 1.0 weight percent sucrose and 1 weight percent of a compound of the dental composition. The samples were incubated at 37° C. for approximately twenty hours, after which time the cured discs were removed from the broth and were gently rinsed with water. Each disc was placed in a separate test tube containing five milliliters of 1M aqueous sodium hydroxide solution, and each test tube was then sonicated for two minutes using a model SH1012-40-8 ultrasonic generator (manufactured by Branson Ultrasonics Corp., Danbury, Conn.) for two minutes to dislodge biofilm on the disc. The optical absorbance (optical density) of each aqueous sodium hydroxide solution was then measured at 550 nm using a Model ULTROSPEC III UV-visible spectrophotometer (manufactured by Pharmacia AB, Uppsala, Sweden). For each compound of the dental composition, five discs were separately incubated in broth and were evaluated separately to provide five optical density measurements. The average of the five optical density measurements was then calculated. […] The average optical density of the control or comparative samples was determined as described above. The ratio, expressed as a percentage, of the average optical density for each compound sample to the average optical density for a control sample was calculated by dividing the average optical density for each compound sample by the average optical density for a control sample and multiplying the result by one hundred. The ratio was considered to be proportional to the average amount of biofilm on the five cured discs, i.e., relatively low average optical density ratio was considered to be indicative of inhibition of biofilm formation. The ratio for the control was 100%.
During the procedure for the Quantitative Biofilm Inhibition Test, each cured disc was visually examined after it was removed from the broth (and rinsed with water) and before it was placed in a test tube containing five milliliters of 1M aqueous sodium hydroxide solution. The presence or absence of visible biofilm on a disc was noted.
The Biofilm Inhibition Test was carried out, using four compounds of the dental composition, in broth containing 1.0, 2.5, or 5.0 weight percent sucrose and the exemplary compounds of the dental composition at a concentration of either 50 millimolar or 150 millimolar. In Table 2, the millimolar concentration of compound that inhibited biofilm formation is given for each concentration of sucrose. An entry of “n/t” means that the compound was not tested in broth containing the corresponding concentration of sucrose.

[3] = tested on: Streptococcus mutans culture (ATCC 25175); assay: Quantitative Biofilm Inhibition Test; details: Streptococcus mutans, ATCC25175, 20 h, 1 weight percent compound; broth with 1.0 weight percent sucrose; approx. twenty hours at 37° C.; average OD at 550 nm as percentage of control (100%); read-out: OD Ratio
Protocol: Compounds of the dental compositions of the invention, and comparative compounds, were evaluated for biofilm inhibition activity. Composite dental restorative (available under the trade designation “FILTEK SUPREME” from 3M ESPE Dental Products, St. Paul, Minn.) was placed in a 15 millimeter by 1 millimeter stainless steel die. […] While the die containing the composite restorative was under compression, the composite was irradiated for two minutes using a Model ACE light source (available from SCHOTT North America, Inc., Auburn, N.Y.). The discs of cured composite restorative were then further cured using a Model UniXS light box (available from Heraeus Kulzer, Inc., Armonk, N.Y.) for 1.5 minutes.
as §1, with “The” for “The cured discs of composite restorative were then immersed in ten milliliters of Streptococcus mutans culture (ATCC 25175; 10^6 CFU/mL) prepared in brain heart infusion broth that contained 1.0 weight percent sucrose and 1 weight percent of a compound of the dental composition. The”, “The ratio, expressed as a percentage, of the average optical density for each compound sample to the average optical density for a control sample was calculated by dividing the average optical density for each compound sample by the average optical density for a control sample and multiplying the result by one hundred.” left out
(§2) The Quantitative Biofilm Inhibition Test was carried out using five compounds of the dental composition and eleven comparative compounds, each at a concentration of 1 weight percent. […] In addition, the Qualitative Biofilm Inhibition Test was carried out for each Example and Comparative Example, in which each disc was visually examined before it was placed in the tube containing the aqueous sodium hydroxide solution.

[4] = tested on: Streptococcus mutans culture (ATCC 25175); assay: Qualitative Biofilm Inhibition Test; set-up: key: +: refers to a visual assessment that a compound inhibited biofilm formation; −: refers to a visual assessment that either a compound did not inhibit biofilm formation, or that bacteria grew in the culture broth; details: 1 weight percent compound; visible biofilm on disc after incubation and rinse
Protocol: as §2, with “During the procedure for the Quantitative Biofilm Inhibition Test, each cured disc was visually examined after it was removed from the broth (and rinsed with water) and before it was placed in a test tube containing five milliliters of 1M aqueous sodium hydroxide solution. The presence or absence of visible biofilm on a disc was noted. The” for “The”

[5] = tested on: Streptococcus mutans (strain ATCC 25175); assay: Minimum Inhibitory Concentration (MIC) Test; details: ATCC25175, S. mutans, compound emulsified in water with PLURONIC F68, 24 hours at 37° C., none = no inhibitory activity noted
Protocol: (§3) The MIC Test was carried out using successively lower concentrations of compounds. Sterile tryptic soy broth (50 microliters; TSB, available from BD Dfico, Becton, Dickinson and Company, Franklin Lakes, N.J.) was deposited into each well of a sterile polystyrene 96-well microtitcr plate. Into each well in the first (leftmost) column of the plate, there was then deposited a 50 microliter aliquot (of known concentration) of a compound (i.e., a compound of Formula I, or a pharmaceutically acceptable salt thereof, or comparative compound). A 50 microliter aliquot of the mixture in the first (leftmost) well in the first row of the plate was transferred to the second well in the first row. A 50 microliter aliquot of the mixture in the second well in the first row was then transferred to the third well in the first row. The compound was successively diluted (1:1 dilution at each step) by transferring a 50 microliter aliquot from one well into the next well, across the row of the plate. This procedure was repeated for each row of the plate. Then, an overnight culture of Streptococcus mutans (strain ATCC 25175) was diluted 1:100 into sterile tryptic soy broth. A 50 microliter aliquot of the diluted S. mutans culture (10^5 CFU) was deposited into each well of the microtiter plate. The plate was then incubated at 37° C. for 24 hours in a sealed humidified chamber. The plate was then visually inspected to determine the lowest concentration of compound at which no bacterial growth was visible. This value was considered to be the minimum inhibitory concentration (MIC) for the compound. The test was repeated using Staphylococcus aureus (strain ATCC 6538) and Pseudomonas aeruginosa (strain ATCC 9027) in place of S. mutans.
(§4) A sample of each of N-dodecanoyl-D-glucosamine, N-tetradecanoyl-D-glucosamine, and N-hexadecanoyl-D-glucosamine (0.100 g each) was emulsified in water (10 g) using a nonionic surfactant (0.9 g; PLURONIC F68, available from BASF Corp., Mount Olive, N.J.). A control sample was made by combining the nonionic surfactant (0.9 g) and water (10 g). Each of the four samples was evaluated using the Minimum Inhibitory Concentration (MIC) Test described above with S. mutans, S. aureus, and P. aeruginosa. In Table 5, “F68” refers to the nonionic surfactant used in the Comparative Examples, and “none” means that no inhibitory activity was noted.

[6] = tested on: Staphylococcus aureus (strain ATCC 6538); assay: Minimum Inhibitory Concentration (MIC) Test; details: S. aureus; compound emulsified in water with PLURONIC F68; 24 hours at 37° C.; none = no inhibitory activity noted
Protocol: as §3, §4

[7] = tested on: Pseudomonas aeruginosa (strain ATCC 9027); assay: Minimum Inhibitory Concentration (MIC) Test; details: P. aeruginosa; compound emulsified in water with PLURONIC F68; 24 hours at 37° C.; none = no inhibitory activity noted
Protocol: as §3, §4

Compound: N[C@H]1C(O)O[C@H](COP(=O)(O)O)[C@@H](O)[C@@H]1O (stereo partly drawn) [Glucosamine-6-Phosphate, D-glucosamine-6-phosphate]
- Bacteria Count Reduction (log reduction) ([1]; 0.1 wt % compound, 2 min.): 0.99 log reduction
- Bacteria Count Reduction (log reduction) ([1]; 0.1 wt % compound, 5 min.): 0.88 log reduction
- Bacteria Count Reduction (log reduction) ([1]; 0.1 wt % compound, 10 min.): 1.06 log reduction
- Bacteria Count Reduction (log reduction) ([1]; 0.5 wt % compound, 2 min.): 0.95 log reduction
- Bacteria Count Reduction (log reduction) ([1]; 0.5 wt % compound, 5 min.): 1.11 log reduction
- Bacteria Count Reduction (log reduction) ([1]; 0.5 wt % compound, 10 min.): 1.23 log reduction
- Bacteria Count Reduction (log reduction) ([1]; 1.0 wt % compound, 2 min.): 1.12 log reduction
- Bacteria Count Reduction (log reduction) ([1]; 1.0 wt % compound, 5 min.): 1.41 log reduction
- Bacteria Count Reduction (log reduction) ([1]; 1.0 wt % compound, 10 min.): 2.09 log reduction
- Concentration of Compound to Inhibit Biofilm Formation ([2]; 1 wt% Sucrose): 50 mM
- activity at 1 % w/w [3]: 2%
- Visual Assessment [4]: +

Compound: CCCCCCCCCCCCCCCC(=O)N[C@H]1C(O)O[C@H](CO)[C@@H](O)[C@@H]1O (stereo partly drawn) [N-hexadecanoyl-D-glucosamine]
- MIC [5]: 39 µg/mL (≈ 93.4 µM)
- MIC [6]: None
- MIC [7]: None

Compound: CCCCCCCCCCCC(=O)N[C@H]1C(O)O[C@H](CO)[C@@H](O)[C@@H]1O (stereo partly drawn) [N-dodecanoyl-D-glucosamine]
- MIC [5]: 78 µg/mL (≈ 216 µM)
- MIC [6]: None
- MIC [7]: None

Compound: N[C@@H]1C(O)O[C@H](CO)[C@@H](O)[C@@H]1O (stereo partly drawn) [Mannosamine HCl, D-mannosamine]
- Bacteria Count Reduction (log reduction) ([1]; 0.1 wt % compound, 2 min.): 1.01 log reduction
- Bacteria Count Reduction (log reduction) ([1]; 0.1 wt % compound, 5 min.): 0.82 log reduction
- Bacteria Count Reduction (log reduction) ([1]; 0.1 wt % compound, 10 min.): 0.95 log reduction
- Bacteria Count Reduction (log reduction) ([1]; 0.5 wt % compound, 2 min.): 0.96 log reduction
- Bacteria Count Reduction (log reduction) ([1]; 0.5 wt % compound, 5 min.): 0.98 log reduction
- Bacteria Count Reduction (log reduction) ([1]; 0.5 wt % compound, 10 min.): 1.00 log reduction
- Bacteria Count Reduction (log reduction) ([1]; 1.0 wt % compound, 2 min.): 0.96 log reduction
- Bacteria Count Reduction (log reduction) ([1]; 1.0 wt % compound, 5 min.): 1.09 log reduction
- Bacteria Count Reduction (log reduction) ([1]; 1.0 wt % compound, 10 min.): 0.99 log reduction
- Concentration of Compound to Inhibit Biofilm Formation ([2]; 1 wt% Sucrose): 50 mM
- Concentration of Compound to Inhibit Biofilm Formation ([2]; 2.5 wt% Sucrose): 50 mM
- Concentration of Compound to Inhibit Biofilm Formation ([2]; 5 wt% Sucrose): 50 mM
- activity at 1 % w/w [3]: 0%
- Visual Assessment [4]: +

Compound: CCCCCCCCCCCCCC(=O)N[C@H]1C(O)O[C@H](CO)[C@@H](O)[C@@H]1O (stereo partly drawn) [N-tetradecanoyl-D-glucosamine]
- MIC [5]: 78 µg/mL (≈ 200 µM)
- MIC [6]: None
- MIC [7]: None
